Measurements taken from paper PMC6591174, “The beneficial androgenic action of steroidal aromatase inactivators in estrogen-dependent breast cancer after failure of nonsteroidal drugs” (Cell Death & Disease, 2019).
“Also recorded” adds a separate entry of the source.

How the values were obtained:
[1] = system: MCF-7 cells; test: Cell proliferation assay (CCK8), MCF-7; assay type: cell-based, human; details: for proliferation of MCF-7 cells: 1 nM-10 μM, 6 days, 10% PRF-CT with 1 nM E2
Method: (§1) Fig. 2 Proliferative response of cancer cells to indicated compounds. a–c the effect of concentrations of different compounds on the growth of the cells. […] Cell growth was measured as described in the “Materials and methods”. The proliferation of cells is expressed as the ratio of the cells compared with the control wells (untreated cells). d, e Influence of different compounds on the cell cycle of MCF-7 cells. MCF-7 cells were cultured in 10% PRF-CT with E2 (1 nM) for 3 days before plating. Cells were seeded in six-well plates and, the next day, starved in PRF for 24 h. Cells were exposed to different compounds at a concentration of 100 nM for 72 h, and then subjected to cell-cycle analysis as described in “Materials and methods”. f MCF-7 cells on poly-L-lysine-coated glass coverslips were exposed to compounds (100 nM) in 10% PRF-CT with 1 nM E2 for 72 h. Control cells were treated with vehicle. DAPI stains DNA, and the secondary anti-mouse antibody to detect the antibody bound to Ki-67 is labeled with the cyanine dye Cy3. The cells were stained with DAPI (blue). Immunofluorescence staining of Ki-67 of cells was observed using fluorescence microscope. Red: Ki-67; blue: nucleus.Typical image is shown. Scale bars: 10 μm. Data represent a mean ± SEM of three independent experiments, each in triplicate; bars, SEM. *P ≤ 0.05 vs. control
(§2) After 24 h, cells were exposed for 3–6 days to various concentrations of compounds (1 nM– 10 μM) or left untreated. The incubation time and the compounds concentrations were chosen based on previous studies[17],[32]–[34]. The effects of the various drugs on cell proliferation at the indicated concentrations (1 nM– 10 μM) were determined by using a CCK8 kit (Dojindo Laboratories, Kumamoto, Japan) according to the manufacturer’s protocol. The absorbance at 450 nm was measured by using a Versamax microplate reader (Thermo Varioskan Flash, USA). Cell growth is expressed as the ratio of the cells compared with the control wells (untreated cells).

[2] = system: ZR-75-1 cells; test: Cell proliferation assay (CCK8), ZR-75-1; assay type: cell-based, human; details: for proliferation of ZR-75-1 cells: 1 nM-10 μM, 6 days, 10% PRF-CT with 1 nM E2
Method: as §1, §2

[3] = system: MCF-7 cells; test: Cell cycle analysis by flow cytometry; assay type: cell-based, human; details: 100 nM, 72 h
Method: Fig. 2 Proliferative response of cancer cells to indicated compounds. a–c the effect of concentrations of different compounds on the growth of the cells. Cells were cultured in 10% PRF-CT with E2 1 nM (MCF-7 and ZR-75-1) or without E2 (MDA-MB-231) for 3 days before plating. Cells were seeded in 96-well plates and 24 h later they were exposed to different concentrations (1 nM– 10 μM) of compounds for 6 days (MCF-7 and ZR-75-1) or 3 days (MDA-MB-231). Cell growth was measured as described in the “Materials and methods”. The proliferation of cells is expressed as the ratio of the cells compared with the control wells (untreated cells). d, e Influence of different compounds on the cell cycle of MCF-7 cells. MCF-7 cells were cultured in 10% PRF-CT with E2 (1 nM) for 3 days before plating. Cells were seeded in six-well plates and, the next day, starved in PRF for 24 h. Cells were exposed to different compounds at a concentration of 100 nM for 72 h, and then subjected to cell-cycle analysis as described in “Materials and methods”. f MCF-7 cells on poly-L-lysine-coated glass coverslips were exposed to compounds (100 nM) in 10% PRF-CT with 1 nM E2 for 72 h. Control cells were treated with vehicle. DAPI stains DNA, and the secondary anti-mouse antibody to detect the antibody bound to Ki-67 is labeled with the cyanine dye Cy3. The cells were stained with DAPI (blue). Immunofluorescence staining of Ki-67 of cells was observed using fluorescence microscope. Red: Ki-67; blue: nucleus.Typical image is shown. Scale bars: 10 μm. Data represent a mean ± SEM of three independent experiments, each in triplicate; bars, SEM. *P ≤ 0.05 vs. control
Cell cycle kinetics were studied by flow cytometry. MCF-7 cells were cultured in 10% PRF–CT with 1 nM E2 for 3 days prior to seeding on six-well plates (10^5 cells/well). Following seeding of cells, cells were serum starved for 24 h, and then treated with media containing 100 nM of the test compounds for 72 h. Cell-cycle analysis was performed as described by Ando[20].

[4] = system: prostate (P), seminal vesicle (SV), levator ani muscle (LA); test: Hershberger assay in orchiectomized rats; assay type: in vivo, Wistar male rats; details: for androgenic effect (P and SVs): 10 mg/kg s.c. once a day
Method: Fig. 5 Estimation of the androgenic and myotrophic activities of the indicated compounds obtained by the Hershberger Assay. Wistar male rats were orchiectomized (orchi) or sham-operated (intact) under ether anesthesia. After 14 days of endogenous hormonal decline, animals were randomly allocated to treatment and vehicle groups (n = 6). The numbers at the end of the abbreviations correspond to the dose in mg/kg body weight of the animal. Flutamide was given by gavage (10 mg/kg/day). […] Then the animals were treated once a day. The rats were sacrificed after completion of the 12-day treatment. Following removal, wet weights of the prostate (P), seminal vesicle (SV), levator ani muscle (LA) were determined. a Size and shape of P, SV and LA at the end of the treatment period. b, c, and d, influence of treatment with the compounds alone or together with the antiandrogen flutamide at the indicated doses on the weight of the organs (P, SV and LA) of the castrated animals. The mean wet weight is represented by the bars in the graphs. Values are means ± SEM; bars, SEM. *P ≤ 0.05, **P ≤ 0.01 vs. control
The Hershberger assay was performed according to the guidelines of the rodent Hershberger assay. Male Wistar rats (140 g, 5–6 weeks) were orchiectomized (orchi) or sham-operated (intact) under ether anesthesia. After 14 days of endogenous hormonal decline, animals were randomly allocated to treatment and vehicle groups (n = 6); orchi group = orchi rats receiving sham injections; intact group = sham-operated rats receiving sham injections; treatment group = orchi rats receiving drugs injections by subcutaneous. The antiandrogen flutamide given by gavage (10 mg/kg/day). Drugs were dissolved in ethanol and diluted in corn oil. The animals were treated once a day. Rats were sacrificed after completion of the 12-day treatment. Following removal, the wet weights of the P, SV, and LA muscle were determined. The data of tissue weights are presented as mean ± SEM.

[5] = system: ER(+) breast cancer (luminal A tumors); parameters: method as in printed; details: daily topical application to the affected breast, within 40 days; earlier work of the authors, ref not given; cited from earlier work
[6] = system: AR protein in MCF-7 cells; test: AR protein expression by western blot and immunofluorescence; assay type: cell-based, human; details: incubation 3 days
Method: Fig. 3 Influence of indicated compounds on the expression of the AR. […] AR protein expression was analyzed by western blot as described in “Materials and methods”. b The densitometric evaluation of the bands is calculated by ImageJ. The numbers represent the densitometric value relative to untreated control. […] Typical image is shown. Scale bars: 10 μm
Total cell proteins were obtained from 70% confluent cell cultures. Protein extracts of whole cells (50 μg) were denatured, separated by SDS–PAGE and transferred to polyvinylidene fluoride membranes. After blocking with 3% bovine serum albumin in Tris-buffered saline-Tween, membranes were probed overnight at 4 °C. […] After incubation with the appropriate secondary antibody, results were detected using ECL detection reagents. Immunoreactive bands were quantified by densitometry using ImageJ software.
MCF-7 cells were seeded on 24-well plates (2 × 10^4 cells/well) with a poly-L-lysine-coated glass coverslip per well in 10% PRF–CT. […] Cells were visualized with a ×40 objective and a Qimaging digital camera coupled to an Olympus X71 fluorescence microscope using a red fluorescent protein filter.

[7] = system: androgenic organs; parameters: method as in PMID 404132; details: doses of 3 and 10 mg/kg; cited from earlier work
[8] = target: T1, Rat AR ligand-binding domains (His-GST-ARLBD) (Rattus norvegicus, UniProt P15207); test: AR fluorescence polarization-based competitive hormone-binding assay (PolarScreen AR Competitor Assay, Red)
T1 construct: purchased Invitrogen
T1 sequence (P15207 651-882 limits assumed): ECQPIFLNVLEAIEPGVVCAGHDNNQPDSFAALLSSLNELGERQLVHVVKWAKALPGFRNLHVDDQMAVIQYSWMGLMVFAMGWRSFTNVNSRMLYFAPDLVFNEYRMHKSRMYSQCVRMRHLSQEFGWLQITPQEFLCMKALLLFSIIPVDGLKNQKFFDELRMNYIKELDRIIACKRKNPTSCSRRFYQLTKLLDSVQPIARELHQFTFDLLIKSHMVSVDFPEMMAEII
Excerpt: Fig. 4 The affinity of indicated compounds to the AR and their regulation of AR transcriptional activity. a AR fluorescence polarization-based competitive hormone-binding assays. […] Curve fitting was done using GraphPad Prism software (version 7.00). […] ARE(3×)-regulated dual-luciferase activity in U2-OS cells under steroid-free conditions. Cells were transiently transfected with pcDNA3.1-AR and ARE3-luc2P (firefly luciferase reporter plasmids) and the internal normalization control pRL-TK (Renilla luciferase reporter plasmid). Six hours after transfection, cells were treated as indicated. Then they were assayed 48 h after transfection for dual-luciferase activity. […] Briefly, compounds were dissolved in DMSO and mixed at 2% (vol/vol) with AR Red Screening Buffer. The tested compounds were subsequently serially diluted in two-fold increments with AR Red Screening Buffer and mixed 1:1 (vol/vol) with a 2 × AR/Fluormone AL complex. Competition for binding AR between Fluormone AL and the tested compounds was allowed to come to equilibrium for 4 h and not more than 20 h at room temperature in the dark. Fluorescence polarization value (mP) was measured on a fluorescence polarization plate reader (Biotech cytation5). Each compound dose was performed in triplicate, relative error was calculated from the standard error of the mean (SEM), and curve fitting was performed using GraphPad Prism™ 7.0 software.

[9] = 100 nM compound with 100 nM OH-Flutamide

C[C@]12CCC(=O)C(O)=C1CC[C@@H]1[C@@H]2CC[C@]2(C)C(=O)CC[C@@H]12 [4-OHA, 4-hydroxyandrostenedione]
proliferation of MCF-7 cells [1]: some antiproliferative action
proliferation of ZR-75-1 cells [2]: no effect on the growth
influence on the cell cycle (G1/G0 increase, S-phase decrease) [3]: apparently more effective than Exemestane and 17-HEXE
androgenic effect (P and SVs) ([4]; 12 days, castrated rats): no effect on P and SVs
androgenic effect (P and SVs) ([4]; 12 days, castrated rats, listed as Formestane): no effect on androgenic organs whatsoever
reduction of tumor size (regression) [5]: more than 50%

C=C1C[C@@H]2[C@H](CC[C@]3(C)C(=O)CC[C@@H]23)[C@@]2(C)C=CC(=O)C=C12 [Exemestane]
proliferation of MCF-7 cells [1]: less effective
proliferation of ZR-75-1 cells [2]: less effective
expression of the AR protein [6]: considerably more effective than Formestane
androgenic effect (P and SVs) ([4]; 12 days, castrated rats): slightly androgenic; also recorded: the same effect
androgenic activity [7]: slight androgenic activity

CC(C)C(=O)Nc1ccc([N+](=O)[O-])c(C(F)(F)F)c1 [Flutamide, flutamide]
prevention of androgenic effects of the test compounds ([4]; Flutamide by gavage 10 mg/kg/day, concomitant): All androgenic effects can be eliminated

C[C@@H]1CC2=CC(=O)CC[C@@H]2[C@H]2CC[C@@]3(C)[C@@H](CC[C@]3(C)O)[C@@H]21 [Mibolerone]
IC50 [8]: 11.8 nM
proliferation of MCF-7 cells [1]: antiproliferative in two ER(+)/AR(+) cell lines at all concentrations
proliferation of ZR-75-1 cells [2]: antiproliferative in two ER(+)/AR(+) cell lines at all concentrations
effect on P, SVs and LA compared with DHT ([4]; 0.5 mg/kg s.c. once a day, 12 days, castrated rats): more effective than DHT

CC(C)(O)C(=O)Nc1ccc([N+](=O)[O-])c(C(F)(F)F)c1 [OH-Flutamide, hydroxyflutamide]
antiproliferative effect in presence of OH-Flutamide, MCF-7 [1, 9]: the antiproliferative effect of DHT is almost completely abolished
antiproliferative effect in presence of OH-Flutamide, ZR-75-1 [2, 9]: the antiproliferative effect of DHT is almost completely abolished
